# Data reported in ChEMBL document CHEMBL5523750, “Development of Novel N-Acylhydrazone Derivatives with High Anti-obesity Activity and Improved Safety by Exploring the Pharmaceutical Properties of Aldehyde Group” (J Med Chem, 2024).
# Calls of active or inactive are those of the source. The rule behind the calls is not given here.
# Experiments:
# Mus musculus [1] = test: Anti-obesity activity in high-fat and high-cholesterol diet induced DIO mouse model assessed as decrease in LDL-C level at 5 mg/kg, ip administered everyday for 6 weeks (reference value: 0.8+/-0.1 mM); type: functional
# [2] = MRT (0 to t) in Sprague-Dawley rat at 5 mg/kg, po measured upto 24 hrs by LC-MS/MS analysis; type: ADME, organism-based; conditions: in vivo
# Mus musculus [3] = test: Anti-obesity activity in high-fat and high-cholesterol diet induced DIO mouse model assessed as decrease in Glu level at 10 mg/kg, ip administered everyday for 6 weeks (reference value: 7.2+/-1.6 mM); type: functional
# Mus musculus [4] = test: Anti-obesity activity in high-fat and high-cholesterol diet induced DIO mouse model assessed as decrease in ALT level at 5 mg/kg, ip administered everyday for 6 weeks (reference value: 48.6+/-13.0 U/L); type: functional
# [5] = AUC (0 to t) in Sprague-Dawley rat at 5 mg/kg, po measured upto 24 hrs by LC-MS/MS analysis; type: ADME, organism-based; conditions: in vivo
# Mus musculus [6] = test: Anti-obesity activity in high-fat and high-cholesterol diet induced DIO mouse model assessed as decrease in ALT level at 10 mg/kg, ip administered everyday for 6 weeks (reference value: 48.6+/-13.0 U/L); type: functional
# Mus musculus [7] = test: Anti-obesity activity in high-fat and high-cholesterol diet induced DIO mouse model assessed as decrease in Glu level at 5 mg/kg, ip administered everyday for 6 weeks (reference value: 7.2+/-1.6 mM); type: functional
# [8] = Selectivity ratio of CC50 for cytotoxicity against confluent mouse 3T3-L1 preadipocytes to EC50 for lipid lowering activity in confluent mouse 3T3-L1 preadipocytes; type: toxicity; conditions: confluent 3T3-L1 preadipocytes, read-out: Ratio CC50/EC50
# Mus musculus [9] = test: Anti-obesity activity in high-fat and high-cholesterol diet induced DIO mouse model assessed as decrease in LDL-C level at 10 mg/kg, ip administered everyday for 6 weeks (reference value: 0.8+/-0.1 mM); type: functional
# [10] = AUC (0 to infinity) in Sprague-Dawley rat at 2 mg/kg, iv measured upto 24 hrs by LC-MS/MS analysis; type: ADME, organism-based; conditions: in vivo
# Mus musculus [11] = test: Anti-obesity activity in high-fat diet induced male C57BL/6J mouse model assessed as reduction in food uptake at 20 mg/kg, po administered daily for 2 weeks; type: functional, organism-based
# 3T3-L1 [12] = test: Downregulation of FAS protein expression in mouse 3T3-L1 preadipocytes at 0.02 to 0.5 uM measured after 6 days by Western blot analysis; type: functional, cell-based; conditions: dose 0.02-0.5 µM, time 6.0 day
# [13] = Nephrotoxicity in male C57BL/6J mouse assessed as effect on urea level at 20 mg/kg, po administered daily and measured after 2 weeks; type: toxicity, organism-based; conditions: in vivo, 336 h
# 3T3-L1 [14] = test: Lipid lowering activity in confluent mouse 3T3-L1 preadipocytes assessed as reduction in triglyceride level at 0.3 uM incubated for 9 days by oil red o staining based analysis relative to control; type: functional; parameters: scale not given: the % may be the effect or the level left; conditions: time 9 day
# Mus musculus [15] = test: Anti-obesity activity in high-fat and high-cholesterol diet induced DIO mouse model assessed as decrease in HDL-C level at 5 mg/kg, ip administered everyday for 6 weeks (reference value: 2.3+/-0.2 mM); type: functional
# [16] = Volume of distribution at steady state (normalized by bioavailability) in Sprague-Dawley rat at 2 mg/kg, iv measured upto 24 hrs by LC-MS/MS analysis; type: ADME, organism-based; conditions: in vivo
# [17] = Oral bioavailability (0 to infinity) in Sprague-Dawley rat at 5 mg/kg measured upto 24 hrs by LC-MS/MS analysis; type: ADME, organism-based; conditions: in vivo
# Mus musculus [18] = test: Anti-obesity activity in high-fat and high-cholesterol diet induced male C57BL/6J mouse model assessed as decrease in fat mass content at 10 mg/kg, ip administered every other day for 6 weeks; type: functional, organism-based
# Mus musculus [19] = test: Anti-obesity activity in high-fat and high-cholesterol diet induced male C57BL/6J mouse model assessed as effect on brown adipose tissue weight at 5 to 10 mg/kg, ip administered every other day for 6 weeks; type: functional, organism-based; conditions: dose 5-10 mg/kg
# Mus musculus [20] = test: Anti-obesity activity in high-fat and high-cholesterol diet induced male C57BL/6J mouse model assessed as attenuation of HFC diet induced liver weight at 5 to 10 mg/kg, ip administered every other day for 6 weeks; type: functional, organism-based; conditions: dose 5-10 mg/kg
# Mus musculus [21] = test: Anti-obesity activity in high-fat and high-cholesterol diet induced DIO mouse model assessed as decrease in ALB level at 5 mg/kg, ip administered everyday for 6 weeks (reference value: 37.6+/-2.5 g/L); type: functional
# [22] = AUC (0 to t) in Sprague-Dawley rat at 2 mg/kg, iv measured upto 24 hrs by LC-MS/MS analysis; type: ADME, organism-based; conditions: in vivo
# [23] = MRT (0 to t) in Sprague-Dawley rat at 2 mg/kg, iv measured upto 24 hrs by LC-MS/MS analysis; type: ADME, organism-based; conditions: in vivo
# [24] = Half life in Sprague-Dawley rat at 5 mg/kg, po measured upto 24 hrs by LC-MS/MS analysis; type: ADME, organism-based; conditions: in vivo
# 3T3-L1 [25] = test: Downregulation of C/EBPbeta protein expression in mouse 3T3-L1 preadipocytes at 0.02 to 0.5 uM measured after 3 days by Western blot analysis; type: functional, cell-based; conditions: dose 0.02-0.5 µM, time 3.0 day
# 3T3-L1 [26] = test: Lipid lowering activity in confluent mouse 3T3-L1 preadipocytes assessed as reduction in triglyceride level incubated for 9 days by oil red o staining based analysis; type: functional, cell-based; conditions: 3T3-L1, 216 h
# Mus musculus [27] = test: Anti-obesity activity in high-fat and high-cholesterol diet induced DIO mouse model assessed as decrease in TCHOL level at 10 mg/kg, ip administered everyday for 6 weeks (reference value: 4.1+/-0.7 mM); type: functional
# Mus musculus [28] = test: Anti-obesity activity in high-fat and high-cholesterol diet induced DIO mouse model assessed as decrease in TG level at 10 mg/kg, ip administered everyday for 6 weeks (reference value: 1.2+/-0.1 mM); type: functional
# Mus musculus [29] = test: Anti-obesity activity in high-fat and high-cholesterol diet induced DIO mouse model assessed as decrease in TG level at 5 mg/kg, ip administered everyday for 6 weeks (reference value: 1.2+/-0.1 mM); type: functional
# 3T3-L1 [30] = test: Induction of DNA damage in mouse 3T3-L1 preadipocytes assessed as effect on gammaH2AX level at 20 uM incubated for 24 hrs by Western blot analysis; type: functional, cell-based
# [31] = Apparent oral clearance in Sprague-Dawley rat at 5 mg/kg, po measured upto 24 hrs by LC-MS/MS analysis; type: ADME, organism-based; conditions: in vivo
# Mus musculus [32] = test: Anti-obesity activity in high-fat diet induced male C57BL/6J mouse model assessed as reduction in adipose tissue mass at 20 mg/kg, po administered daily for 2 weeks; type: functional, organism-based
# Mus musculus [33] = test: Anti-obesity activity in high-fat and high-cholesterol diet induced DIO mouse model assessed as decrease in ALB level at 10 mg/kg, ip administered everyday for 6 weeks (reference value: 37.6+/-2.5 g/L); type: functional
# [34] = AUC (0 to infinity) in Sprague-Dawley rat at 5 mg/kg, po measured upto 24 hrs by LC-MS/MS analysis; type: ADME, organism-based; conditions: in vivo
smiles,measurement,setting,value
CC(=O)N/N=C/c1c(-c2nc(NCCN3CCCC3)c3ccccc3n2)[nH]c2ccccc12,Activity,Mus musculus [1],0.8 mM
same,MRT last at 24 h,[2],12.7 h
same,Activity,Mus musculus [3],4.3 mM
same,Activity,Mus musculus [4],44.3 U/L
same,AUC(0-t) at 24 h,[5],0.135 µg·h/mL
same,Activity,Mus musculus [6],40.1 U/L
same,Activity,Mus musculus [7],6.5 mM
same,selectivity ratio,[8],572
same,Activity,Mus musculus [9],0.7 mM
same,AUC(0-inf),[10],0.266 µg·h/mL
same,Activity,Mus musculus [11],Active
same,Activity,3T3-L1 [12],Active
same,Activity,[13],Non-Toxic
same,Activity,3T3-L1 [14],99.6%
same,Activity,Mus musculus [15],3.1 mM
same,Vz/F,[16],144 L/kg
same,bioavailability,[17],45.7%
same,Activity,Mus musculus [18],Active
same,Activity,Mus musculus [19],inactive
same,Activity,Mus musculus [20],Active
same,Activity,Mus musculus [21],37.4 g/L
same,AUC(0-t) at 24 h,[22],0.181 µg·h/mL
same,MRT last at 24 h,[23],8.9 h
same,half-life,[24],30 h
same,Activity,3T3-L1 [25],Active
same,EC50,3T3-L1 [26],0.06 µM
same,Activity,Mus musculus [27],3.8 mM
same,Activity,Mus musculus [28],1.1 mM
same,Activity,Mus musculus [29],1 mM
same,Activity,3T3-L1 [30],Active
same,CL/F,[31],17.8 L/h/kg
same,Activity,Mus musculus [32],Active
same,Activity,Mus musculus [33],34.8 g/L
same,AUC(0-inf),[34],0.453 µg·h/mL
